Laboratory results reported in patent publication US20220073521A1, “PYRIMIDINE AND FIVE-MEMBERED NITROGEN HETEROCYCLE DERIVATIVE, PREPARATION METHOD THEREFOR, AND MEDICAL USES THEREOF” (Tuojie Biotech (Shanghai) Co., Ltd., priority 2018, published 2022).
Read-outs that look alike come from different tables or passages of the source.

Experiments:
[1] = system: p-ERK in KYSE-520 cells; test: Determination of p-ERK in KYSE-520 cells (HTRF); type: cell-based; conditions: Homo sapiens, KYSE-520, 2 h
Procedure: KYSE-520 cells (Nanjing Cobioer Biosciences CO., Ltd.) in the logarithmic growth phase were inoculated (30,000 cells/well) in 1640 medium containing 10% of FBS, and adhered in a 96-well plate overnight (5% CO2, 37° C.). […] The cell culture was stopped with cell lysate. The level of phosphorylated ERK in KYSE-520 cells was determined by a method based on homogeneous time-resolved fluorescence HTRF (Cisbio, 64ERKPEG). The fluorescence values (Ex337 nm/Em625/665 nm) were read on the compatible HTRF reader (MD SpectraMax).

[2] = target: T1, hERG potassium channel (Homo sapiens, UniProt Q12809); test: hERG current inhibition experiment (manual patch clamp, CHO hERG cells); type: cell-based; conditions: whole-cell patch clamp, tail current
T1 construct: host or cells: CHO hERG cells
Procedure: In this experiment, whole-cell current recording was performed using a manual patch clamp system (HEKA EPC-10 signal amplification and digital conversion system, purchased from HEKA Electronic, Germany). The round glass slide of which surface CHO hERG cells (provided by Sophion Bioscience Inc., Denmark, the cell generation number was P21) were grown on was placed in an electrophysiological recording slot under an inverted microscope. The recording slot was continuously perfused with extracellular fluid (approximately 1 mL per minute). Conventional whole-cell patch clamp current recording technique was used in the experiment. The experiments were performed at normal room temperature (˜25° C.). The cells were clamped at a voltage of −80 mV. Cell patch clamp voltage was depolarized to +20 mV to activate hERG potassium channel, and to −50 mV after 5 seconds to eliminate inactivation and generate tail currents. The tail current peak was used as a value of hERG current. When the hERG potassium current recorded in the above steps became steady under continuous perfusion of the extracellular fluid in the recording slot, the drug to be tested could be added to the perfusion, until the inhibition effect of the drug on hERG current reached a steady state. Generally, the overlapping of most recent three consecutive current recording lines was used as a criterion to determine whether the state was stable. After reaching the steady state, the recording slot was perfused with extracellular fluid until the hERG current returned to the value before the drug adding. The test data was analyzed by HEKA Patchmaster (V2x73.2), Microsoft Excel and the data analysis software provided by Graphpad Prism 5.0.

[3] = target: T2, SHP2 wild-type phosphatase (recombinantly expressed full-length SHP2, aa 1-593) (Homo sapiens, UniProt Q06124); test: In vitro activity on SHP2 wild-type phosphatase (DiFMUP fluorescence); conditions: wild-type full-length SHP2, activated polypeptide IRS1 0.5 nM, DiFMUP 30 μM;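 note: enzyme preincubated at room temperature, then DiFMUP reaction run at room temperature and halted with SDS, potency derived from a logistic curve fit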
T2 sequence (Q06124 1-593): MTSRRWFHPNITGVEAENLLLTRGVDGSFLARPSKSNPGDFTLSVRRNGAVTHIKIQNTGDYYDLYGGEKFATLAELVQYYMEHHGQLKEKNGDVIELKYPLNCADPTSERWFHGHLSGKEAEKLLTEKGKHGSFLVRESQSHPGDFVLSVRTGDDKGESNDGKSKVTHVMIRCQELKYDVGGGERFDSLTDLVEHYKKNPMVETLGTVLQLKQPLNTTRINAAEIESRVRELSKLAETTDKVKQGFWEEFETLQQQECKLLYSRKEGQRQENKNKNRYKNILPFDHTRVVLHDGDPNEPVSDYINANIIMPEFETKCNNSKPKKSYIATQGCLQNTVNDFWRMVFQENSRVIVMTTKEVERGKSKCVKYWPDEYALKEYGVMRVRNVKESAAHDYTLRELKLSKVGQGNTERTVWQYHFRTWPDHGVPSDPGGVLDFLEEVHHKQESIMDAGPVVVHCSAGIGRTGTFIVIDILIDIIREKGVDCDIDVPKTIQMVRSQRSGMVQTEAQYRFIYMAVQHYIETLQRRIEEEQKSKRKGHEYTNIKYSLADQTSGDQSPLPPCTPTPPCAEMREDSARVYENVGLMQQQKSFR
Procedure: 0.2 nM recombinantly expressed full-length SHP2 (aa 1-593), 0.5 nM activated polypeptide IRS1 with double phosphorylation sites (sequence: H2N-LN(pY)IDLDLY(dPEG8)LST(pY)ASINFQK-amide) and a series of concentrations of the test compound (final concentrations were 1 μM, 0.3 μM, 0.1 μM, 0.03 μM, 0.01 μM, 0.003 μM, 0.001 μM, 0.0003 μM, 0.0001 μM, 0.00003 μM) were added to the phosphatase reaction solution (60 mM HEPES, pH 7.5 0.005% Brij-35, 75 mM NaCl, 75 mM KCl, 1 mM EDTA, 5 mM DTT). The reaction solution was shaked (350 rpm) at room temperature for 30 minutes. The reaction substrate DiFMUP with a final concentration of 30 μM was added, and the reaction solution was reacted at room temperature for 30 minutes. The phosphatase reaction was stopped by adding 5 μL of stop solution (60 mM HEPES, pH 7.5, 0.2% SDS). Ex358 nm/Em455 fluorescence value was read on the fluorescence plate reader MD SpectraMax.
The IC50 value of the compound was calculated using the four-parameter logit method. In the following formula, x represents the logarithmic form of the compound concentration, and F(x) represents the effect value (the inhibition rate of cell proliferation under the given concentration condition): F(x)=((A−D)/(1+((x/C)^B)))+D. A, B, C and D are four parameters. Different concentrations correspond to different inhibition rates, based on which an inverse curve was plotted, and the IC50 of the inhibitor was calculated from the curve. The IC50 of the compound was calculated with Primer premier 6.0.

[4] = system: KYSE-520 cells; test: KYSE-520 cell proliferation experiment (CellTiter-Glo, 7 days); type: cell-based; conditions: Homo sapiens
Procedure: The treated cell plate was incubated at 37° C., 5% CO2 for 7 days. CellTiter-Glo (Promega, G7573) was used to determine the number of viable cells in each well of the treated plate. 100 μL of the detection reagent was added to each well, and the plate was incubated at room temperature for 10 minutes. Then, the […] in each well was measured with Envision plate reader (PerkinElmer). […] The IC50 value was further calculated as the compound concentration required for 50% proliferation inhibition in the best-fit curve with […].

[5] = Pharmacokinetics assay in rats; type: in vivo, SD rats; conditions: rat; for AUC: read-out: Area under curve AUC; for half-life: read-out: Half-life T1/2 (converted)
Procedure: Rats were used as test animals. The drug concentration in plasma at different time points was determined by LC/MS/MS method after intravenous administration or intragastrical administration of the compound of the present invention to rats. The pharmacokinetic behavior of the compound of the present invention was studied and evaluated in rats.
The atropisomer with a RT of 1.495 minutes in Examples 3 and 4, compounds of Example 17, Example 41 and Example 43.
Healthy male SD rats (6-8 weeks old), 3 rats per group.
Intravenous administration: A certain amount of the test compound was weighed, to which 10% by volume of N,N-dimethylacetamide, 33% by volume of triethylene glycol and 57% by volume of water were added to prepare a 1 mg/mL colorless, clear and transparent solution;
Intragastrical administration: A certain amount of the test compound was weighed, to which 0.5% by mass of hypromellose, 0.1% by volume of Tween 80 and 99.4% by volume of water were added to prepare a 1 mg/mL white suspension.
After an overnight fast, the SD rats were intravenously administered the test compound at an administration dose of 1 mg/kg, or intragastrically administered the test compound at an administration dose of 5 mg/kg.
(§1) The rats were intravenously administered the compound of the present invention. 0.2 ml of blood was taken from the jugular vein at 0.083, 0.25, 0.5, 1, 2, 4, 8 and 24 hours after the administration. The samples were placed in tubes containing EDTA-K2, and centrifuged at 4000 rpm and 4° C. for 5 minutes to separate the blood plasma. The plasma samples were stored at −75° C.
as §1, with “Or, the rats” for “The rats”, “were intragastrically” for “were intravenously”, “at” for “at 0.083,”
The content of the test compound in the plasma of rat after intragastrical administration of the test compound at different concentrations was determined: 50 μL of rat plasma at each time after administration was taken, to which 200 μL of a solution (50 ng/mL) of internal standard dexamethasone in acetonitrile was added. The plasma was vortex-mixed for 30 seconds, and centrifuged at 4700 rpm and 4° C. for 15 minutes. The supernatant was taken from the plasma samples, and a three-fold dilution was carried out by adding water. 2.0 μL of the supernatant was used for LC/MS/MS analysis.

T1 sequence (Q12809 whole entry): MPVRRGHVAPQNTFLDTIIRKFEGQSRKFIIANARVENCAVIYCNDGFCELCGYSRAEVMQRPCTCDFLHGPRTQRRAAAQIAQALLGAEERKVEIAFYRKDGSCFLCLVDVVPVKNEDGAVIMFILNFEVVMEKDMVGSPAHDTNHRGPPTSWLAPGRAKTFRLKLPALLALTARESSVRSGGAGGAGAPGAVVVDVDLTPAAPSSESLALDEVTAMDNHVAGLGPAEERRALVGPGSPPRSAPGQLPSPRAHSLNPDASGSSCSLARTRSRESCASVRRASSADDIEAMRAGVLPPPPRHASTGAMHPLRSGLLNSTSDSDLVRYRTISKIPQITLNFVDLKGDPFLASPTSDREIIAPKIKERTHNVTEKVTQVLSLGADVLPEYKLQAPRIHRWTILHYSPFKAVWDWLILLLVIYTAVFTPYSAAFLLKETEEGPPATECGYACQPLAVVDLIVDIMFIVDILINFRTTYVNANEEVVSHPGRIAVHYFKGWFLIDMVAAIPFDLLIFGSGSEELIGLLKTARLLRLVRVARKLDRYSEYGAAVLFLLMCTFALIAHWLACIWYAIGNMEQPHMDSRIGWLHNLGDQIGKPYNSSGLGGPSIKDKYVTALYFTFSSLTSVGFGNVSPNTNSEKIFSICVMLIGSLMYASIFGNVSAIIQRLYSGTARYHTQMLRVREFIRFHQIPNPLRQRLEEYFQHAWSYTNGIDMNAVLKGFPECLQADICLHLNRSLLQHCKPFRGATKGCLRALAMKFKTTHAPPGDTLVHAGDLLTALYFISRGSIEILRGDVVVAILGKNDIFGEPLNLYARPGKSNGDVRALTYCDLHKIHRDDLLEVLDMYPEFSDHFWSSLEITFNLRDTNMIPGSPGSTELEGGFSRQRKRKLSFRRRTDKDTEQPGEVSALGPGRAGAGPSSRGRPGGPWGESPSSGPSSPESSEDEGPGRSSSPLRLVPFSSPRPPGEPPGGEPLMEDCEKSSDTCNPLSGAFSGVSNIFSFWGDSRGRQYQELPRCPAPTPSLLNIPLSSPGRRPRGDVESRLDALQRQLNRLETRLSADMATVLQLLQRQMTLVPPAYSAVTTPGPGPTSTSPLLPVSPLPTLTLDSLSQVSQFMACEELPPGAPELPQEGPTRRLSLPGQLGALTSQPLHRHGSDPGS

SMILES: Cc1nc(N2CCC3(CCC[C@H]3N)CC2)n2ccnc2c1-c1cccc(Cl)c1Cl [Example 1, (R)-8-(8-(2,3-Dichlorophenyl)-7-methylimidazo[1,2-c]pyrimidin-5-yl)-8-azaspiro[4.5]decan-1-amine]
- IC50 [1]: 383 nM
- IC50 [2]: 2130 nM
- IC50 [3]: 4.5 nM
- IC50 [4]: 723 nM

SMILES: Cc1nc(N2CCC3(CC2)CO[C@@H](C)[C@H]3N)n2ccnc2c1-c1cccc(Cl)c1Cl [Example 2, (3S,4S)-8-(8-(2,3-Dichlorophenyl)-7-methylimidazo[1,2-c]pyrimidin-5-yl)-3-methyl-2-oxa-8-azaspiro[4.5]decan-4-amine]
- IC50 [1]: 40.5 nM
- IC50 [2]: 2610 nM
- IC50 [3]: 1.1 nM
- IC50 [4]: 186 nM

SMILES: C[C@@H]1OCC2(CCN(c3nc(N)c(Sc4ccnc(F)c4Cl)c4nccn34)CC2)[C@@H]1N [Example 26, (3S,4S)-8-(7-Amino-8-((3-chloro-2-fluoropyridin-4-yl)thio)imidazo[1,2-c]pyrimidin-5-yl)-3-methyl-2-oxa-8-azaspiro[4.5]decan-4-amine]
- IC50 [1]: 11.6 nM
- IC50 [3]: 2.7 nM
- IC50 [4]: 62 nM

SMILES: Cc1nc(N2CCC3(CC2)CO[C@@H](C)[C@H]3N)n2cnnc2c1-c1cccc(Cl)c1Cl [Example 9, (3S,4S)-8-(8-(2,3-Dichlorophenyl)-7-methyl-[1,2,4]triazolo[4,3-c]pyrimidin-5-yl)-3-methyl-2-oxa-8-azaspiro[4.5]decan-4-amine]
- IC50 [1]: 285 nM
- IC50 [2]: 1910 nM
- IC50 [3]: 3.2 nM
- IC50 [4]: 785 nM

SMILES: Nc1nc(N2CCC3(CC2)Cc2ncccc2[C@H]3N)n2ccnc2c1Sc1cccnc1C(F)(F)F [Example 28, (S)-1′-(7-Amino-8-((2-(trifluoromethyl)pyridin-3-yl)thio)imidazo[1,2-c]pyrimidin-5-yl)-5,7-dihydrospiro[cyclopenta[b]pyridine-6,4′-piperidin]-5-amine]
- IC50 [1]: 8.6 nM
- IC50 [3]: 2.6 nM
- IC50 [4]: 21.6 nM

SMILES: Nc1nc(N2CCC3(CCC[C@H]3N)CC2)n2ccnc2c1Sc1ccnc(F)c1Cl [Example 22, (R)-8-(7-Amino-8-((3-chloro-2-fluoropyridin-4-yl)thio)imidazo[1,2-c]pyrimidin-5-yl)-8-azaspiro[4.5]decan-1-amine]
- IC50 [1]: 24.5 nM
- IC50 [3]: 2.1 nM
- IC50 [4]: 102 nM

SMILES: N[C@@H]1CCCC12CCN(c1ncc(Sc3ccnc(F)c3Cl)c3nccn13)CC2 [Example 15, (R)-8-(8-((3-Chloro-2-fluoropyridin-4-yl)thio)imidazo[1,2-c]pyrimidin-5-yl)-8-azaspiro[4.5]decan-1-amine]
- IC50 [1]: 197 nM
- IC50 [3]: 5.6 nM
- IC50 [4]: 312 nM

SMILES: Nc1nc(N2CCC3(CCC[C@H]3N)CC2)n2ccnc2c1Sc1cccnc1C(F)(F)F [Example 23, (R)-8-(7-Amino-8-((2-(trifluoromethyl)pyridin-3-yl)thio)imidazo[1,2-c]pyrimidin-5-yl)-8-azaspiro[4.5]decan-1-amine]
- IC50 [1]: 23.2 nM
- IC50 [3]: 2.3 nM
- IC50 [4]: 51.6 nM

SMILES: C[C@@H]1OCC2(CCN(c3nc(N)c(-c4cccc(Cl)c4Cl)c4nccn34)CC2)[C@@H]1N [Example 21, (3S,4S)-8-(7-Amino-8-(2,3-dichlorophenyl)imidazo[1,2-c]pyrimidin-5-yl)-3-methyl-2-oxa-8-azaspiro[4.5]decan-4-amine]
- IC50 [1]: 26.6 nM
- IC50 [3]: 3.8 nM
- IC50 [4]: 111 nM

SMILES: N[C@@H]1c2ccccc2CC12CCN(c1ncc(Sc3cccnc3C(F)(F)F)c3nccn13)CC2 [Example 31, (S)-1′-(8-((2-(Trifluoromethyl)pyridin-3-yl)thio)imidazo[1,2-c]pyrimidin-5-yl)-1,3-dihydro spiro[indene-2,4′-piperidin]-1-amine]
- IC50 [1]: 6.5 nM
- IC50 [3]: 3.4 nM
- IC50 [4]: 52 nM

SMILES: Cc1nc(N2CCC3(CC2)Cc2ccccc2[C@H]3N)n2ccnc2c1-c1cccc(Cl)c1Cl [Example 8, (S)-1′-(8-(2,3-Dichlorophenyl)-7-methylimidazo[1,2-c]pyrimidin-5-yl)-1,3-dihydrospiro[indene-2,4′-piperidin]-1-amine]
- IC50 [1]: 370 nM
- IC50 [3]: 5 nM
- IC50 [4]: 151 nM

SMILES: Cc1nc(N2CCC3(CC2)CO[C@@H](C)[C@H]3N)n2ccnc2c1-c1cccc(Cl)c1Cl (single isomer, unassigned) [The atropisomer with a RT of 1.495 minutes in Examples 3 and 4]
- AUC ([5]; male, SD, plasma, IV 1 mg/kg): 3130 ± 300 ng·h/mL
- clearance ([5]; male, SD, plasma, IV 1 mg/kg, read-out: Clearance CL_obs): 5.13 ± 0.59 mL/min/kg
- half-life ([5]; male, SD, plasma, IV 1 mg/kg): 330 ± 35.4 min
- bioavailability ([5]; male, SD, plasma, PO 5 mg/kg vs IV 1 mg/kg, read-out: Bioavailability F): 82.6 ± 17.8%
- AUC ([5]; male, SD, plasma, PO 5 mg/kg): 12500 ± 2470 ng·h/mL
- half-life ([5]; male, SD, plasma, PO 5 mg/kg): 371 ± 36.6 min
- Cmax ([5]; male, SD, plasma, PO 5 mg/kg, read-out: Maximum plasma concentration Cmax): 1220 ± 220 ng/mL
- Apparent distribution volume Vss_obs ([5]; IV 1 mg/kg): 2030 ± 150 mL/kg
- IC50 [1]: 39 nM
- IC50 [3]: 0.7 nM
- IC50 [4]: 126 nM

SMILES: N[C@@H]1c2cccnc2CC12CCN(c1ncc(Sc3cccnc3C(F)(F)F)c3nccn13)CC2 [Example 34, (S)-1′-(8-((2-(Trifluoromethyl)pyridin-3-yl)thio)imidazo[1,2-c]pyrimidin-5-yl)-5,7-dihydro spiro[cyclopenta[b]pyridine-6,4′-piperidin]-5-amine]
- IC50 [1]: 5.4 nM
- IC50 [3]: 2.8 nM
- IC50 [4]: 92.5 nM
